Data from patent US20110275667A1, “COMPOSITIONS USEFUL FOR TREATING GASTROESOPHAGEAL REFLUX DISEASE” (EDUSA Pharmaceuticals, Inc., priority 2007, published 2011).
Like-named read-outs stand apart in the source and are kept apart here.

Tests used:
healthy volunteers [1] = assay: Phase 1b crossover clinical trial: reflux events measured by multichannel intraluminal impedance and pH (MII-pH) after a refluxogenic meal; format: in vivo, human
Method: The clinical trial reported here was a Phase 1b, randomized, double-blind placebo-controlled, crossover study. In the Study, 28 healthy volunteers were administered doses of DDP733 (0.5, 0.8 and 1.4 mg) and placebo and then given a refluxogenic meal. For a period of two hours after completion of the refluxogenic meal, reflux events were measured using intraesophageal impedance.
Phase 1b, randomized, double-blinded, placebo controlled, crossover study.
Three Study Periods: Total Number of Visits=4 • (1) Ten-day screening period (2 visits); • (2) Two week treatment period (Days 1-14) (2 visits: Day 1 which is on the same day as the second screening visit, and Day 8); and • (3) One day end of study period (1 visit).
Subjects were randomized into a treatment group on Day 1 (the same day as visit 2 of the screening period). For the completed study, each subject was exposed to one of the dose levels of DDP733 (i.e., 0.5 mg, 0.8 mg and 1.4 mg) and to placebo in randomized sequence to complete approximately one week of dosing with each of the two dosing regimens (DDP733 and placebo). The six treatment sequences were:
For example, there were 7 subjects in the study who received the 0.5 mg dose of DDP733. At the commencement of dosing period 1, three subjects in the 0.5 mg group received placebo and 4 subjects received 0.5 mg of drug. […]
(§1) After randomization, subjects received a first dose of study medication (Day 1). The medication was administered under supervision and the subjects were then evaluated by manometry to assess LES position and pressure and by a multichannel intraluminal impedance and pH (MII-pH) procedures to measure the number of reflux events following ingestion of a refluxogenic meal (sausage and egg breakfast sandwich and 8 oz. cup of coffee). […]
• Primary: Reduction in esophageal reflux during a provocative procedure (following a refluxogenic meal) as measured by MII-pH; • Secondary: • (a) Change in reflux related symptoms (heartburn, regurgitation, acid taste) associated with ingestion of a refluxogenic meal; and • (b) Change in lower esophageal sphincter pressure. […]

healthy volunteers [2] = assay: Phase 1b clinical trial: lower esophageal sphincter pressure (LESP) by manometry; format: in vivo, human; conditions: 0.5 mg, 0.8 mg and 1.4 mg
Method: as §1, with “coffee). The supervised dose was the only dose administered on this initial day of testing (Day 1). Subjects continued dosing for a further five day, then had one day with no study medication before returning for the next visit on Day 8. The same procedure was performed on Day 8 of the treatment period (i.e., the first day of the second dosing period).” for “coffee).”
(§2) • Primary: Reduction in esophageal reflux during a provocative procedure (following a refluxogenic meal) as measured by MII-pH; • Secondary: • (a) Change in reflux related symptoms (heartburn, regurgitation, acid taste) associated with ingestion of a refluxogenic meal; and • (b) Change in lower esophageal sphincter pressure.

healthy volunteers [3] = assay: Phase 1b clinical trial: reflux related symptoms (heartburn, regurgitation, acid taste) associated with refluxogenic meal; format: in vivo, human; conditions: 0.5 mg, 0.8 mg and 1.4 mg
Method: In addition to assessment of the LESP and number of reflux events, subjects were also assessed on Days 1 and 8 to determine the frequency of the following symptoms: heartburn; regurgitation; and acid taste associated with the refluxogenic meal.
as §2

healthy volunteers [4] = assay: Phase 1b clinical trial: safety and tolerability (vital signs, adverse events, clinical laboratory testing, ECGs); format: in vivo, human
Description: Characterize the safety and tolerability of DDP733 in volunteers.
Safety measurements included monitoring of vital signs and adverse events, clinical laboratory testing and performance of electrocardiograms (ECGs).

Humans = conditions: cited from earlier work
gastric acid = conditions: cited from earlier work

SMILES: O=C(N[C@H]1CN2CCC1CC2)c1c[nH]c2ccsc2c1=O [DDP733, (R)—N-1-azabicyclo[2.2.2]oct-3-yl-4,7-dihydro-7-oxothieno[3,2-b]pyridine-6-carboxamide]
- statistical significance on primary clinical endpoint of reduction in the number of reflux events versus placebo (healthy volunteers [1]; 0.5 mg dose, p=0.0313, Wilcoxon signed-rank test): achieved statistical significance
- reduction in the number of reflux events versus placebo (healthy volunteers [1]; 0.8 mg dose): did not show a statistically significant reduction
- reduction in the number of reflux events versus placebo (healthy volunteers [1]; 1.4 mg dose): did not show a statistically significant reduction
- LESP versus placebo (secondary endpoint) (healthy volunteers [2]): no statistically significant differences
- reflux related symptoms versus placebo (secondary endpoint) (healthy volunteers [3]): no statistically significant differences
- adverse events (AEs) leading to discontinuation (healthy volunteers [4]; all doses): no adverse events (AEs) leading to discontinuation
- significant adverse events (SAEs) (healthy volunteers [4]; all doses): no significant adverse events (SAEs) reports
- safety and tolerability (healthy volunteers [4]; all doses (0.5, 0.8, 1.4 mg)): safe and well tolerated
- time to resolution of drug related adverse events (healthy volunteers [4]; did not require medication): 1 to 5 days
- liver or cardiac abnormalities (healthy volunteers [4]; human, in vivo): No liver or cardiac abnormalities were observed
- severity of drug related adverse events (nausea, vomiting, pruritus, rash, rash macular, flush/hot flush, abdominal pain/discomfort) (healthy volunteers [4]; human, in vivo): mild/moderate
- effect on increasing gastric emptying (Humans; 0.2 mg dose): no significant effect
- effect on the fundus (Humans; 0.2 mg dose): no significant effect
- effect on increasing gastric emptying (Humans; 1.0 mg dose): no significant effect
- effect on the fundus (Humans; 1.0 mg dose): no significant effect
- effect on gastric emptying (Humans; 4.0 mg dose): delays gastric emptying
- effect on the fundus (Humans; 4.0 mg dose): relaxes the fundus
- gastric acid suppressing activity (gastric acid): has gastric acid suppressing activity
